Data from patent publication US20260335277A1, “CHLOROTONIL DERIVATIVES” (priority 2023, published 2026).
Converted amounts (≈) assume the structure as drawn.

Assays:
[1] = tested on: drug-sensitive P. falciparum 3D7; assay: Drug sensitivity assay, asexual stages (HRP2 ELISA, 72 h); assay type: cell-based; conditions: Plasmodium falciparum, mean ± SD, read-out: chloroquine IC50
Procedure: (§1) Drug sensitivity assays of asexual plasmodium stages were carried out as described before (doi: 10.1128/AAC.49.8.3575-3577.2005). Briefly, the drugs were distributed in a 3-fold serial dilution in 96-well plates. Synchronized ring-stage parasites were diluted to a parasitemia of 0.05% with O Rh+ erythrocytes incomplete culture medium and seeded at a hematocrit of 1.5% in a total volume of 225 μL per well. Thereafter, the plates were incubated at 5% CO2, 5% O2, at 37° C. for 72 h, then they were frozen and thawed three times. The growth inhibition of P. falciparum was measured through an enzyme-linked immunosorbent assay (ELISA) for histidine-rich protein 2 (HRP2) using a microplate reader.

[2] = tested on: chloroquine-resistant P. falciparum; assay: as above; assay type: cell-based; conditions: Plasmodium falciparum; chloroquine-resistant P. falciparum Dd2; mean ± SD
Procedure: as §1

zebrafish larvae = assay: Toxicity in zebrafish larvae (MTC / IC50); assay type: in vivo
Procedure: For toxicity screening, zebrafish larvae were exposed three days post fertilization and monitored for 48 h until five days post fertilization. All malformations and pathophysiological phenotypes were noted and used to determine the inhibitory concentration (IC50) of the respective derivative against zebrafish larvae. The selectivity index (SI) was then calculated using the IC50 and the MIC of either S. aureus or P. falciparum 3D7.

S. epidermidis DSM-28765 = assay: MIC testing (broth microdilution, EUCAST); assay type: cell-based; conditions: Staphylococcus epidermidis, DSM28765, S. epidermidis DSM-28765; read-out: MIC S. epiderm.
Procedure: (§2) Minimal inhibitory concentration (MIC) of the compounds in the present invention was determined using broth microdilution performed according to EUCAST guidelines (ISO20776-1:2019). S. aureus ATCC29213 and E. faecalis ATCC29212 served as quality control strains.

[3] = tested on: S. aureus N315 (methicillin-resistant, MRSA); assay: MIC testing (broth microdilution, EUCAST); assay type: cell-based; conditions: Staphylococcus aureus, MRSA
Procedure: as §2

[4] = tested on: chloroquine-resistant laboratory strains of Plasmodium falciparum; conditions: cited from earlier work
[5] = tested on: mature gametocytes (stages IV and V); conditions: stage IV-V gametocytes; cited from earlier work
[6] = tested on: chloroquine-sensitive laboratory strains of Plasmodium falciparum; conditions: cited from earlier work
Plasmodium falciparum = conditions: cited from earlier work
Hemolysis = assay type: cell-based
Procedure: (§3) Complementing the toxicity profiling, ADME properties of the lead dehalogenil were determined. This had not been possible for the first generation frontrunner ChB1-Epo2 or the natural product ChA because of their poor limit of detection. […] Across species (mouse, rat, human), metabolic stability is high while plasma stability is moderate. Besides, no hemolysis and no inhibition of the metabolically important enzyme CYP3A4 was observed by both dehalogenil and ChA. Plasma protein binding (PPB) is >99.4% in all species.

[7] = Toxicity in mouse models after multiple PO dosing; assay type: in vivo; conditions: multiple PO dosing at 100 mg/kg
Text: (§4) In addition, standard in vitro ADME parameters cannot be uniquely determined since chlorotonil A concentrations in these assays were always below the limit of detection. […] Both compounds (chlorotonil A and B1-Epo2) could be administered at low doses intravenously, however, only when dissolved in a vehicle which is not suitable for further development as part of preclinic studies as it contained high amounts of organic solvents (10 vol. % ethanol, 5 vol. % DMSO).

[8] = tested on: mature gametocytes (stages IV and V); assay: Activity against mature gametocytes (stage IV-V), bioluminescence assay; assay type: cell-based, P. falciparum; conditions: Plasmodium falciparum
Procedure: Activity against gametocytes was determined using an in vitro bioluminescence assay as described previously (doi.org/10.1371/journal.pone.0035019).

[9] = tested on: clinical isolates from Gabon; conditions: read-out: median IC50; cited from earlier work
P. falciparum = P. falciparum infection models, per oral; assay type: in vivo; conditions: 50 mg/kg per oral
Text: as §4

CYP3A4 = assay: Inhibition of CYP3A4; assay type: in vitro ADME
Procedure: as §3

parasitemia = conditions: mice, 4 day suppression test, 36-110 mg/kg oral, pilot experiments; cited from earlier work
Aqueous solubility = assay type: physicochemical
Procedure: as §3

Structure (SMILES)	IC50 [1] [µM]	IC50 [2] [µM]	toxicity effects in zebrafish larvae models (zebrafish larvae; comparative studies)	IC50 in zebrafish larvae (zebrafish larvae; exposed 3 days post fertilization, monitored 48 h) [µM]	MIC (S. epidermidis DSM-28765) [mg/L]	MIC [3] [mg/L]	IC50 [4] [µM]	gametocytocidal activity compared with other tested compounds [5]	IC50 [6] [µM]	development of resistant parasites in vitro by drug pressure (Plasmodium falciparum)	hemolysis (Hemolysis)	toxicity in mouse models [7]	IC50 [8] [µM]	IC50 [9] [µM]	efficacy in P. falciparum infection model (cure) (P. falciparum)	inhibition of CYP3A4 (CYP3A4)	reduced parasitemia (parasitemia) [%]	water solubility (Aqueous solubility)
CCN(CC)CCCC(C)Nc1ccnc2cc(Cl)ccc12 (stereo not drawn) [Chloroquine]	0.0074	0.226 ± 0.076																
CC1=C[C@@H](C)[C@H]2[C@@H]3C(=O)C(Cl)(Cl)C(=O)[C@H](C)C(=O)O[C@@H](C)/C=C/C=C\[C@@H](C)[C@@H]3C=C[C@@H]2C1 [ChA, reference compound]			cardiotoxic, hepatotoxic and developmental toxicity effects	1.09	0.05 (≈ 0.104 µM)	0.05 (≈ 0.104 µM)	0.018	superior activity to all other tested compounds in this assay, besides epoxomicin	0.009	not possible to develop resistant parasites in vitro	no hemolysis	general adverse effects, and cardio- and hepatotoxicity	0.0095 ± 0.003	0.0152	full cure	no inhibition	> 90	poor water solubility
